Source: US9951046B2, “TRPA1 modulators” (Algomedix, Inc., priority 2014, dated 2018)
Where two headings read alike, the source gives them in different places.

Target: T1, human TRPA1 (Homo sapiens, UniProt O75762)
T1 construct: expressed in transfected cells
Test: Cell-based functional intracellular calcium ([Ca2+]i) assay, Fluo-4/Fluo-8, FlexStation, challenge with reference TRPA1 agonist (FFA, AITC or 4-HNE)
How it was run: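 Doxycycline-induced (1 μg/ml) HEK293 expressing human TRPA1, with 5 μM ruthenium red during induction, loaded with Fluo-4 or Fluo-8 plus 2 mM probenecid; FlexStation read at 20-25° C, sometimes with 0.1% BSA.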

[1] = HEK293 cells expressing human TRPA1, IC50 class after addition of reference TRPA1 agonist (FFA, AITC or 4-HNE), read-out: human TRPA1-HEK Activity

T1 sequence (O75762 whole entry): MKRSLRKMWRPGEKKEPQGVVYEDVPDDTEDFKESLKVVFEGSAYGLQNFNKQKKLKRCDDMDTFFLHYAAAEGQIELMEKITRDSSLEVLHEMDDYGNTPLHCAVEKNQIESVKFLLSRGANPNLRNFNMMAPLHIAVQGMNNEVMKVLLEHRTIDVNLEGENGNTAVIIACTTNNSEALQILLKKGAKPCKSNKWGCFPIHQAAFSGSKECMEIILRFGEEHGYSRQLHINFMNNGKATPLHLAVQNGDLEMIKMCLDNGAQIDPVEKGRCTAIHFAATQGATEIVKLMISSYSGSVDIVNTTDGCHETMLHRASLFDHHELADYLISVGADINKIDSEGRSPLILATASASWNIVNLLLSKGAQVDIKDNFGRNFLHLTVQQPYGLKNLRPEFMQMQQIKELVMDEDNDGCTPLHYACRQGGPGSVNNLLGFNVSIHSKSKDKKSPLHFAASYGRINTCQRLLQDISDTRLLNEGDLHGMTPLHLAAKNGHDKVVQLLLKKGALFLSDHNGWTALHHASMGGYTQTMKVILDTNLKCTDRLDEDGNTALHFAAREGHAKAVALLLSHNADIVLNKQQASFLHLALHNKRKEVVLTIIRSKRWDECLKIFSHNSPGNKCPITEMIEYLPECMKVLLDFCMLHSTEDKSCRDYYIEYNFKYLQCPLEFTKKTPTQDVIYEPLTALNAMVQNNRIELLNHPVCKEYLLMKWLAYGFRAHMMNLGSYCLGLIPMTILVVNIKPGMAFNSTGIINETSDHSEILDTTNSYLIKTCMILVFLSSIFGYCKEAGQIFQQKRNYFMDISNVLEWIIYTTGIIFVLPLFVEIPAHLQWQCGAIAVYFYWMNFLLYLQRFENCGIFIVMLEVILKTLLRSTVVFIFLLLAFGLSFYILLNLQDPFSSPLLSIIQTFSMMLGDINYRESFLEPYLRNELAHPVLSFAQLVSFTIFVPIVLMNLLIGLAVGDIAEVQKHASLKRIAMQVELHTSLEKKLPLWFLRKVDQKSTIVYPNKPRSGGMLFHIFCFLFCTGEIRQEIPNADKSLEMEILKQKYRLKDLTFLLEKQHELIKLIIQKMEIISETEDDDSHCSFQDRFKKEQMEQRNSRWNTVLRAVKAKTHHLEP

Molecule `Cc1cc(OC(F)(F)F)ccc1-n1nc(C(=O)N2CCC(n3c(=O)[nH]c4ccc(F)c(F)c43)CC2)cc1-c1cccnc1` [Compound 227] has an IC50 [1] of 0.001 to 5 µM.
Molecule `CC1CC(n2c(=O)[nH]c3ccccc32)CCN1C(=O)c1cc(-c2cccnc2)n(-c2ccc(C(F)(F)F)c(F)c2)n1` (stereo not shown) [Compound 261] has an IC50 [1] of 0.001 to 5 µM.
For `O=C1OC2(CCN(C(=O)c3cc(-c4ccncc4)n(-c4ccc(C(F)(F)F)nc4)n3)CC2)c2ccccc21` [Compound 123], the IC50 [1] was over 25 µM.
`O=C(c1cc(-c2cccnc2)n(-c2ccc(C(F)(F)F)c(C(F)(F)F)c2)n1)N1CCC(n2c(=O)[nH]c3ccc(F)c(F)c32)CC1` [Compound 285] showed an IC50 [1] of 0.001 to 5 µM.
`CC1CC(n2c(=O)[nH]c3ccc(F)c(F)c32)CCN1C(=O)c1cc(-c2cccnc2)n(-c2ccc(F)c(C(F)(F)F)c2)n1` (stereo not shown) [Compound 293] showed an IC50 [1] of 0.001 to 5 µM.
`O=C(c1cc(-c2ccncc2)n(-c2ccccc2)n1)N1CCN(c2ncccc2C(F)(F)F)CC1` [Compound 34] showed an IC50 [1] of over 25 µM.
In the case of `O=C(Nc1ccc2c(c1)COC2=O)c1cc(-c2ccncc2)n(-c2ccc(C(F)(F)F)c(F)c2)n1` [Compound 113], the IC50 [1] is reported as over 25 µM.
`O=C(c1cc(-c2ccncc2)n(-c2ccc(C(F)(F)F)cc2)n1)N1CCC(n2c(=O)[nH]c3ccc(F)c(F)c32)CC1` [Compound 177] showed an IC50 [1] of 0.001 to 5 µM.
Molecule `O=C(c1cc(-c2ccncc2)n(-c2ccc(C(F)(F)F)cc2)n1)N1CCN2C(=O)OC[C@@H]2C1` [Compound 72] has an IC50 [1] of 5 to 25 µM.
For `O=C(c1cc(-c2ccncc2)n(-c2ccc3c(c2)OCO3)n1)N1CCC(n2c(=O)[nH]c3ccccc32)CC1` [Compound 156], the IC50 [1] was over 25 µM.
`Cn1c(=O)n(C2CCN(C(=O)c3cc(-c4ccncc4)n(-c4ccc(C(F)(F)F)cc4)n3)CC2)c2ccccc21` [Compound 61] showed an IC50 [1] of over 25 µM.
In the case of `N#Cc1ccc(-n2nc(C(=O)N3CCC4(CC3)C(=O)NCN4c3ccc(F)c(F)c3)cc2-c2cccnc2)cc1F` [Compound 216], the IC50 [1] is reported as 0.001 to 5 µM.
`CCCC1COC2(CCN(C(=O)c3cc(-c4ccncc4)n(-c4ccc(C(F)(F)F)cc4)n3)CC2)O1` (stereo not shown) [Compound 74] showed an IC50 of over 25 µM.
`CN1C(=O)NC2(CCN(C(=O)c3cc(-c4ccncc4)n(-c4ccc(F)c(F)c4)n3)CC2)C1=O` [Compound 97] was tested, and the IC50 [1] was over 25 µM.
For `O=C(c1cc(-c2ccc(Cl)nc2)n(-c2ccc(C(F)(F)F)c(F)c2)n1)N1CCC(n2c(=O)[nH]c3ccc(F)c(F)c32)CC1` [Compound 239], the IC50 [1] was 0.001 to 5 µM.
Molecule `O=C(c1cc(-c2ccncc2)n(-c2cnccn2)n1)N1CCN2C(=O)OC[C@@H]2C1` [Compound 136] has an IC50 [1] of 5 to 25 µM.
In the case of `O=C1NC(=O)C2(CCN(C(=O)c3cc(-c4ccncc4)n(-c4ccccc4)n3)CC2)N1` [Compound 30], the IC50 [1] is reported as over 25 µM.
In the case of `O=C(c1nn(-c2ccc(F)c(C(F)(F)F)c2)c2c1CCc1cccnc1-2)N1CCC2(CC1)C(=O)NCN2c1ccc(F)cc1` [Compound 315], the IC50 [1] is reported as 0.001 to 5 µM.
Molecule `O=C(Nc1nc(-c2ccc(C(F)(F)F)cc2)cs1)c1cc(-c2ccncc2)n(-c2ccccc2)n1` [Compound 35] has an IC50 [1] of over 25 µM.
Molecule `O=C(c1cc(-c2ccncc2)n(-c2ccc(C(F)(F)F)nc2)n1)N1CC(=O)N2CCc3ccccc3C2C1` (stereo not shown) [Compound 125] has an IC50 [1] of over 25 µM.
`O=C(c1cc(-c2cccnc2)n(-c2ccc(C(F)(F)F)c(F)c2)n1)N1CCC(n2c(=O)[nH]c3ccc(F)c(C(F)(F)F)c32)CC1` [Compound 196] showed an IC50 [1] of 0.001 to 5 µM.
For `Cc1cc(N2CNC(=O)C23CCN(C(=O)c2cc(-c4cccnc4)n(-c4ccc(C(F)(F)F)c(F)c4)n2)CC3)cc(C)c1F` [Compound 195], the IC50 [1] was 0.001 to 5 µM.
`O=C(c1cc(-c2ccncc2)n(-c2ccc(C(F)(F)F)nc2)n1)N1CCC2(CC1)C(=O)NCN2c1ccc(F)cc1` [Compound 120] showed an IC50 [1] of 5 to 25 µM.
Work on `O=C(c1cc(-c2cccnc2)n(-c2ccc(F)c(C(F)(F)F)c2)n1)N1CCC(N2Cc3c(F)cccc3NC2=O)CC1` [Compound 289] yielded an IC50 [1] of 0.001 to 5 µM.
Work on `O=C1Nc2ccc(F)c(F)c2C2(CCN(C(=O)c3cc(-c4cccnc4)n(-c4ccc(F)c(C(F)(F)F)c4)n3)CC2)O1` [Compound 272] yielded an IC50 [1] of 0.001 to 5 µM.
`CN1C(=O)NC2(CCN(C(=O)c3cc(-c4ccncc4)n(-c4ccc(C(F)(F)F)c(F)c4)n3)CC2)C1=O` [Compound 118] showed an IC50 [1] of over 25 µM.
In the case of `CN1C(=O)NC2(CCN(C(=O)c3cc(-c4ccncc4)n(-c4cnccn4)n3)CC2)C1=O` [Compound 139], the IC50 [1] is reported as over 25 µM.
`O=C(c1cc(-c2ccncc2)n(-c2ccccc2)n1)N1CCC2(CCNC2=O)CC1` [Compound 13] gave an IC50 [1] of over 25 µM.
In the case of `O=C(c1cc(-c2cccnc2)n(-c2cc(F)c(F)c(F)c2)n1)N1CCC2(CC1)C(=O)NCN2c1ccc(Br)cc1` [Compound 201], the IC50 [1] is reported as 0.001 to 5 µM.
In the case of `O=C1Nc2ccc(C(F)(F)F)cc2C2(CCN(C(=O)c3cc(-c4cccnc4)n(-c4ccc(F)c(C(F)(F)F)c4)n3)CC2)O1` [Compound 274], the IC50 [1] is reported as 0.001 to 5 µM.
With `O=C(c1cc(-c2ccncc2)n(-c2ccc(C(F)(F)F)c(F)c2)n1)N1CCC2(CC1)C(=O)NCN2c1ccccc1` [Compound 161] the IC50 [1] was 5 to 25 µM.
`Cc1cc(N2CNC(=O)C23CCN(C(=O)c2cc(-c4cccnc4)n(-c4ccc(F)c(C#N)c4)n2)CC3)cc(C)c1F` [Compound 249] was tested, and the IC50 [1] was 0.001 to 5 µM.
With `O=C(c1cc(-c2ccncc2)n(-c2ccccc2)n1)N1CC2(CCCC2)C1` [Compound 6] the IC50 [1] was over 25 µM.
`O=C(c1cc(-c2cccnc2)n(-c2ccc(C(F)(F)F)c(F)c2)n1)N1CCC(n2c(=O)[nH]c3ncccc32)CC1` [Compound 260] gave an IC50 [1] of 0.001 to 5 µM.
For `Cc1c(F)ccc2[nH]c(=O)n(C3CCN(C(=O)c4cc(-c5cccnc5)n(-c5cc(F)c(F)c(F)c5)n4)CC3)c12` [Compound 202], the IC50 [1] was 0.001 to 5 µM.
With `N#Cc1ccc(-n2nc(C(=O)N3CCC4(CC3)C(=O)NCN4c3ccc(F)c(F)c3)cc2-c2cccnc2)cc1` [Compound 213] the IC50 [1] was 0.001 to 5 µM.
Work on `O=C1Nc2ccccc2C1N1CCN(C(=O)c2cc(-c3cccnc3)n(-c3ccc(C(F)(F)F)c(F)c3)n2)CC1` (stereo not shown) [Compound 258] yielded an IC50 [1] of over 25 µM.
`O=C(Nc1ccc2c(c1)OC(F)(F)O2)c1cc(-c2ccncc2)n(-c2ccc(C(F)(F)F)c(F)c2)n1` [Compound 109] was tested, and the IC50 [1] was over 25 µM.
Molecule `O=C(c1cc(-c2cccnc2)n(-c2cc(F)c(F)c(F)c2)n1)N1CCC(n2c(=O)[nH]c3cccnc32)CC1` [Compound 208] has an IC50 [1] of 0.001 to 5 µM.
`O=C(c1cc(-c2cccnc2)n(-c2ccc(C(F)(F)F)c(F)c2)n1)N1CCC2(CC1)C(=O)NCN2c1ccc(OC(F)F)cc1` [Compound 188] showed an IC50 [1] of 0.001 to 5 µM.
`O=C(c1cc(-c2cccnc2)n(-c2ccc(F)c(C(F)(F)F)c2)n1)N1CCC2(CC1)C(=O)NCN2c1ccc(OC(F)F)cc1` [Compound 283] was tested, and the IC50 [1] was 5 to 25 µM.
In the case of `Cn1c(=O)n(C2CCN(C(=O)c3cc(-c4ccncc4)n(-c4ccc(C(F)(F)F)c(F)c4)n3)CC2)c2ccccc21` [Compound 105], the IC50 [1] is reported as over 25 µM.
Work on `O=C(c1cc(-c2cccnc2)n(-c2c(Cl)cc(C(F)(F)F)cc2Cl)n1)N1CCC2(CC1)C(=O)NCN2c1ccc(F)c(F)c1` [Compound 219] yielded an IC50 [1] of 0.001 to 5 µM.
With `O=C(c1cc(-c2cccnc2Cl)n(-c2ccc(C(F)(F)F)c(F)c2)n1)N1CCC2(CC1)C(=O)NCN2c1ccc(F)cc1` [Compound 317] the IC50 [1] was 0.001 to 5 µM.
`O=C(c1cc(-c2ccncc2)n(-c2ccccc2)n1)N1CCC2(CC1)OCCO2` [Compound 31] gave an IC50 of over 25 µM.
Work on `O=C(c1cc(-c2cccnc2)n(-c2ccc(I)cc2)n1)N1CCC(n2c(=O)[nH]c3ccc(F)c(F)c32)CC1` [Compound 237] yielded an IC50 [1] of 0.001 to 5 µM.
`O=C(c1cc(-c2cccnc2)n(-c2ccc(OC(F)(F)F)cc2)n1)N1CCC(n2c(=O)[nH]c3ccc(F)c(F)c32)CC1` [Compound 220] gave an IC50 [1] of 0.001 to 5 µM.
With `O=C(c1cc(-c2ccncc2)n(-c2ccc(C(F)(F)F)c(F)c2)n1)N1CCN2C(=O)OC[C@@H]2C1` [Compound 115] the IC50 [1] was over 25 µM.
Work on `O=C(c1cc(-c2ccncc2)n(-c2ccc(C(F)(F)F)cc2)n1)N1CCC(n2c(=O)[nH]c3ccccc32)CC1` [Compound 144] yielded an IC50 [1] of 5 to 25 µM.
`Cn1c(=O)oc2ccc(NC(=O)c3cc(-c4ccncc4)n(-c4ccccc4)n3)cc21` [Compound 39] showed an IC50 [1] of over 25 µM.
Work on `CN1C(=O)c2ccc(NC(=O)c3cc(-c4ccncc4)n(-c4ccccc4)n3)cc2C1=O` [Compound 40] yielded an IC50 [1] of over 25 µM.
`O=C(c1cc(-c2ccncc2)n(-c2ccc(C(F)(F)F)cc2)n1)N1CCC(N2C(=O)OC[C@H]2c2ccccc2)CC1` [Compound 62] was tested, and the IC50 [1] was over 25 µM.
In the case of `O=C(c1cc(-c2ccncc2)n(-c2cccc(C(F)(F)F)c2)n1)N1CCC(n2c(=O)[nH]c3ccccc32)CC1` [Compound 147], the IC50 [1] is reported as over 25 µM.
`Cc1cc(-n2nc(C(=O)N3CCC(n4c(=O)[nH]c5ccc(F)c(F)c54)CC3)cc2-c2cccnc2)cc(C(F)(F)F)c1F` [Compound 286] showed an IC50 [1] of 0.001 to 5 µM.
With `O=C(c1cc(-c2ccncc2)n(-c2cnccn2)n1)N1CCC(c2nc3ccccc3o2)CC1` [Compound 129] the IC50 [1] was over 25 µM.
Work on `O=C(c1cc(-c2cncc(F)c2)n(-c2ccc(C(F)(F)F)c(F)c2)n1)N1CCC2(CC1)C(=O)NCN2c1ccc(F)cc1` [Compound 318] yielded an IC50 [1] of 0.001 to 5 µM.
Molecule `O=C(c1cc(-c2ccncc2)n(-c2ccc(F)cc2F)n1)N1CCC2(CC1)OCCO2` [Compound 154] has an IC50 of over 25 µM.
With `N#Cc1ccc(-n2nc(C(=O)N3CCC(n4c(=O)[nH]c5ccc(F)c(F)c54)CC3)cc2-c2cccnc2)cc1` [Compound 212] the IC50 [1] was 0.001 to 5 µM.
`O=C(c1cc(-c2ccncc2)n(-c2ccc(C(F)(F)F)nc2)n1)N1CCC(N2C(=O)OC[C@H]2c2ccccc2)CC1` [Compound 127] showed an IC50 [1] of over 25 µM.
`N#Cc1ccc2c(c1)[nH]c(=O)n2C1CCN(C(=O)c2cc(-c3cccnc3)n(-c3cc(F)c(F)c(F)c3)n2)CC1` [Compound 229] was tested, and the IC50 [1] was 0.001 to 5 µM.
`N#Cc1cc2[nH]c(=O)n(C3CCN(C(=O)c4cc(-c5cccnc5)n(-c5ccc(C(F)(F)F)c(F)c5)n4)CC3)c2cc1F` [Compound 234] gave an IC50 [1] of 0.001 to 5 µM.
`O=C(c1cc(-c2ccncc2)n(-c2cnccn2)n1)N1CCC(n2c(=O)[nH]c3ccccc32)CC1` [Compound 168] showed an IC50 [1] of 5 to 25 µM.
Molecule `O=C(c1cc(-c2cccnc2)n(-c2ccc(C(F)(F)F)c(F)c2)n1)N1CCC2(CC1)C(=O)NC(=O)N2c1ccc(F)cc1` [Compound 185] has an IC50 of 5 to 25 µM.
`O=C(c1cc(-c2ccncc2)n(-c2ccc(F)c(F)c2)n1)N1CCC2(CC1)OCc1ccccc12` [Compound 79] was tested, and the IC50 [1] was over 25 µM.
